Values quoted from earlier work as cited in paper PMC8999965 (Materials, 2022).

Set-up: method as in earlier work
Conditions: PCOP score excluded from summation

Structure (SMILES)	EI(PCOP=0), environmental index excluding Photochemical Oxidation Potential
CC#N [acetonitrile]	1.88
CC(C)=O [acetone]	0.66
C[S+](C)[O-] [DMSO, dimethyl sulfoxide]	0.26
O=CN1CCOCC1 [4-formylmorpholine]	0.51
C1COCCN1 [morpholine]	2.95
CCN1CCOCC1 [4-ethylmorpholine]	2.12

Same assay, conditions: sum of toxicity and environmental impact scores

Structure (SMILES)	EI, overall environmental index
CC#N [acetonitrile]	1.88
CC(C)=O [acetone]	1.27
C[S+](C)[O-] [DMSO, dimethyl sulfoxide]	11.68
O=CN1CCOCC1 [4-formylmorpholine]	0.51
C1COCCN1 [morpholine]	2.95
CCN1CCOCC1 [4-ethylmorpholine]	2.12
